# ChEMBL document CHEMBL3507680, “University of Dundee, Gates Library screen for HepG2 cell viability”
# Assay: Human HepG2 cell viability assay in 384 well format
# Assay type: toxicity, cell-based
# Set-up: dose 125 nL, time 70.5 hour; cytotoxicity at 70.5 h: concentration not given beside the values
# Conditions: HepG2 cells, read-out: Inhibition
row,SMILES,cytotoxicity at 70.5 h [%]
1,Cc1ccc(NC(=O)Cn2ncc(SCC(N)=O)c(Cl)c2=O)cc1,-7.72
2,Cc1cc(NC(=O)Cn2ncc(SCC(N)=O)c(Cl)c2=O)ccc1Br,-5.33
3,O=C(C1=NN(Cc2ccccc2)c2ccccc2S1(=O)=O)N1CCCC1,-0.281
4,CC(C)Cn1nc2ccc(S(=O)(=O)N3CCC(C)CC3)cn2c1=O,-10.3
5,CC1CCN(C(=O)c2cn(-c3cc(N4CCSCC4)ncn3)cn2)CC1,3.74
6,O=C(c1cn(-c2cc(N3CCSCC3)ncn2)cn1)N1CCOCC1,23.9
7,CNC(=O)C1CCCN(c2nc3c(-c4ccccc4)csc3c(=O)[nH]2)C1 (stereo unspecified),4.92
8,Cc1ccc(-c2csc3c(=O)[nH]c(N4CCCC(C(=O)O)C4)nc23)cc1 (stereo unspecified),3.06
9,COCCCNC(=O)Cc1cc(-c2ccccc2)on1,-0.233
10,CCOc1nn(CC)cc1-c1nnc(SCc2cccnc2)n1C,-5.3
11,COCCN1C(=O)CC[C@@H]2[C@H]1CCN2C(=O)N(C)C,-8.72
12,O=C(C1CCC1)N1CCO[C@@H]2CNC[C@@H]21,12.9
13,CC(C)N(C)Cc1ncn2c1CN(CC(=O)N(C)C)CCC2,8.76
14,CCOC(=O)C1CN(S(=O)(=O)C2CC2)Cc2ncn(CC)c21 (stereo unspecified),11
15,COCCN(CCOC)C(=O)c1ccn(-c2ccc3ccccn23)n1,11.4
16,CCN1C(=O)CC(c2cnn(C)c2)C12CCN(C(=O)c1ccc[nH]1)CC2 (stereo unspecified),-1.7
17,CCOC(=O)C1CN(C(=O)COC)Cc2ncn(CC)c21 (stereo unspecified),-5.03
18,CN1CC2(CCN(Cc3cccnc3)CC2)c2cc(F)ccc21,-3.7
19,CN(C)Cc1cc(=O)n2c(n1)CN(Cc1ccco1)CCC2,-4.34
20,CCOC(=O)C1CN(C(=O)C2CCOCC2)Cc2ncn(CC)c21 (stereo unspecified),-3.55
21,CCN1C(=O)CC(c2cnn(C)c2)C12CCN(C(=O)c1ccoc1)CC2 (stereo unspecified),-0.434
22,CC(C)CNC(=O)N1CCC2(CCCO2)C1 (stereo unspecified),-1.61
23,CC(=O)N1CCCn2c(nc(CNS(=O)(=O)C3CC3)cc2=O)C1,-2.61

row,SMILES,cytotoxicity at 70.5 h [%]
1,CCC(CC)NC(=O)c1ccc2nnc(C3CCN(C(C)=O)C3)n2c1 (stereo unspecified),5.94
2,O=C(NC1CCCC1)c1nc2c(o1)CN(C(=O)CCO)C2,-4.91
3,CCS(=O)(=O)N1CCOC2(CCCN(c3ncc(F)cn3)C2)C1 (stereo unspecified),-4.67
4,O=c1cc(CNS(=O)(=O)C2CC2)nc2n1CCCNC2,-2.64
5,CC(C)NC(=O)c1ccc2nnc(C3CCN(C(=O)NC(C)C)C3)n2c1 (stereo unspecified),-0.652
6,Cc1nc(-c2cc(C(=O)N3CCN(C)CC3)c3ccccn23)cn1C,-0.647
7,CC(=O)N1CCC(c2nnc3ccc(C(=O)NC(C)C)cn23)C1 (stereo unspecified),-1.85
8,O=C(NC1CCCC1)c1nc2c(o1)CN(CCO)C2,-0.956
9,COC1COC2(CCN(C(=O)c3cscn3)CC2)C1 (stereo unspecified),-6.82
10,CN(C)C(=O)CNC(=O)c1ccc2c(-c3nccs3)noc2c1,-3.55
11,O=C1COC2(CCN(c3ncccn3)CC2)CN1c1ccsc1,-4.75
12,CCC(=O)N1CCC2(CC1)CC(CC(N)=O)c1ccc(F)cc12 (stereo unspecified),-7.49
13,CC(C)N(C)Cc1noc2c1CN(C(=O)c1ccsc1)CC2,-12.5
14,COc1cc(N2CCc3ncnc(-c4cnn(C)c4)c3CC2)ncn1,-12
15,CN(C)CCNC(=O)c1ccc2c(-c3nccs3)noc2c1,-8.08
16,COC[C@]12COC[C@H]1CN(C(=O)C1CCSCC1)C2,-6.73
17,O=C(NCCN1CCCC1)c1ccc2c(-c3nccs3)noc2c1,-6.42
18,CNC(=O)c1cnc2n1CCN(Cc1cccnc1OC)C2,-4.55
19,CC1c2ncc(Cn3cncn3)n2CCN1C(=O)Cc1cccs1 (stereo unspecified),-6.55
20,CCOCc1cnc2n1CCN(C(=O)Cc1ccco1)C2C (stereo unspecified),-6.58
21,C[C@H]1C[C@@H]2CCN(CC3CCOCC3)C[C@H]2O1,-7.97
22,CC(C)N1c2sc(-c3ccsc3)nc2CC1C(=O)NC1CCCC1 (stereo unspecified),-7.06
23,Nc1nc(N2CCCCCC2)ncc1C(=O)NCc1ccc(F)c(Cl)c1,-10.8

row,SMILES,cytotoxicity at 70.5 h [%]
1,Cc1cc(=O)[nH]c(=O)n1COCc1ccccc1,-18.6
2,COC(=O)CC1CCN(C(=O)c2ccc(C)cc2)CC1,-4.4
3,Cn1nnnc1SCc1cc2c(cc1Cl)OCO2,-16
4,CN(C)CCCNC(=O)c1ccc(Cl)cc1Cl,-14.1
5,Cn1cnnc1SCc1cc2c(cc1Br)OCO2,-1.06
6,COc1ccc2c(ccn2CCC(=O)/N=c2\[nH]nc(C3CCCO3)s2)c1 (stereo unspecified),-15.5
7,Cc1cs/c(=N\C(=O)c2c3c(nc4onc(C)c24)CCC3)[nH]1,-19.5
8,CN(C)CCNC(=O)c1ccccc1NC(=O)c1cc(Cl)ccc1Cl,26.4
9,CC1=Nc2c(c(O)nn2C2CCOCC2)C(c2cccnc2)S1 (stereo unspecified),-3.81
10,COCc1n[nH]/c(=N\C(=O)c2c3c(nc4onc(C)c24)CCC3)s1,-3.26
11,O=C(CCn1ccc2ccc(Br)cc21)/N=c1\[nH]nc(C2CCCO2)s1 (stereo unspecified),-14.5
12,O=C(Cn1ccc2ccc(Cl)cc21)/N=c1\[nH]nc(C2CCCO2)s1 (stereo unspecified),-2.63
13,COC(=O)CC1CCN(C(=O)c2ccccc2-n2nnnc2C)CC1,-12.6
14,CC1=Nc2c(c(O)nn2C(C)C)C(c2cccnc2)S1 (stereo unspecified),26.1
15,O=c1cc(-c2ccccc2)nc2n1CCCCC2,23.6
16,CCOc1cccc(CNc2cccc(C(=O)OC)c2)c1O,-19.3
17,CCOc1cccc(CNc2ccccc2OC)c1O,-8.56
18,CCc1ccc(-n2nnc(C(=O)O)c2-c2ccccn2)cc1,-26.2
19,COc1ccc(-n2nnc(C(=O)O)c2-c2ccccn2)cc1,-14.5
20,O=S(=O)(NC1=NCN(CCc2ccccc2)CN1)c1ccc(F)cc1,-27.6
21,CN1C(=O)C2(CCN(Cc3cccnc3)CC2)c2cccc(F)c21,-3.56
22,c1csc(-c2noc(C3CCCNC3)n2)c1 (stereo unspecified),-16.5
23,CC(C)N1[C@H](Cn2cncn2)C[C@@H]2CNCC[C@@H]21,0.707

row,SMILES,cytotoxicity at 70.5 h [%]
1,O=C(Cc1ccsc1)N1C[C@@H]2OCCN(c3cnccn3)[C@@H]2C1,12.1
2,COCCN1CCCc2sc(C(=O)Nc3ccc(C)nc3)nc21,-0.226
3,c1coc(CN2CCn3c(COCC4CC4)nnc3C2)c1,0.787
4,CCCN1CCC2(C1)c1ccccc1S(=O)(=O)N2C (stereo unspecified),-0.72
5,COCCN1CCC2(C1)c1ccccc1S(=O)(=O)N2Cc1ccccc1 (stereo unspecified),1.99
6,CC(C)N1[C@H](Cn2cncn2)C[C@@H]2CN(c3ncccn3)CC[C@@H]21,-0.391
7,COCCN1CCC2(C1)CN(c1ncc(F)cn1)C2,0.704
8,CC(C)N1CCO[C@H]2CN(C(=O)Cc3ccsc3)C[C@H]21,-2.31
9,CCOC(=O)C1CN(CC2CC2)Cc2ncn(CC)c21 (stereo unspecified),-2.34
10,COCCN1CCO[C@@H]2CN(C(=O)NCc3ccccc3)CC[C@@H]2C1,2.53
11,Cn1cc(N2C[C@@H]3CN(CC4CCOCC4)C[C@@H]3C2=O)cn1,2.05
12,O=C(NCC1Cn2nnc(-c3ccncc3)c2CO1)c1ccsc1 (stereo unspecified),1.38
13,CC(C)c1nc(-c2cc(C(=O)N3CCN(C)CC3)c3ccccn23)cs1,9.79
14,O=C(C1CN(CC2CC2)CC12CCOCC2)N1CCOCC1 (stereo unspecified),-1.96
15,O=C1[C@H]2CN(CC3CCOCC3)C[C@H]2CN1c1ccsc1,-1.42
16,CC(C)n1ccc(-c2cc(C(=O)N3CCN(C)CC3)c3ccccn23)n1,-3.84
17,O=S(=O)(C1CC1)N1CCC2(CCN(Cc3nccs3)CC2)CC1,-2.17
18,CS(=O)(=O)N1CCC2(CCN(Cc3nccs3)CC2)CC1,-0.411
19,CN(C)S(=O)(=O)N1CC[C@]2(C[C@H](OCc3ccncc3)CO2)C1,-0.865
20,OCCN1CCC2(CCc3cc(-c4ccoc4)ccc32)CC1,-2.95
21,c1ccc(CCNCC2Cn3nncc3CO2)cc1 (stereo unspecified),-0.333
22,Cc1ccc(CN2CC[C@H]3[C@H]2CCN3S(=O)(=O)C2CC2)cc1,-6.33
23,COCCN1CCN(S(=O)(=O)C2CC2)Cc2ccc(C)nc21,-5.69

row,SMILES,cytotoxicity at 70.5 h [%]
1,CN(C)Cc1nc2c(o1)CN(C(=O)NCc1cccc(F)c1)C2,-5.42
2,O=C(c1cocn1)N1CCC2(CC1)CC(Oc1ccccn1)CO2 (stereo unspecified),-8.48
3,COCCN1CCC2(COCCN(C(=O)Cc3cccs3)C2)C1 (stereo unspecified),-5.29
4,Cc1ccc(N2C[C@@H]3CN(Cc4ccsc4)CCO[C@@H]3C2)nn1,-11.5
5,Fc1ccc(CN2CCC3(CCN(Cc4nccs4)CC3)C2)cc1,-0.695
6,c1cc2c(cc1CN1CC[C@H]3CO[C@H](CN4CCCC4)[C@H]3C1)OCO2,-1.72
7,Fc1ccc(CN2CCOCC3(CCN(Cc4nccs4)C3)C2)cc1 (stereo unspecified),-1.05
8,CNC(=O)CN1CCO[C@H]2CN(CC3CCOC3)C[C@H]21 (stereo partly specified),-1.2
9,CNC(=O)CN1CCO[C@H]2CN(CC3CCOCC3)C[C@H]21,-2.33
10,COCCN1CCCn2cnc(CN(C)C(C)C)c2C1,4.24
11,CN(C)CCOCc1nnc2n1CCN(Cc1ccsc1)C2,2.24
12,c1cncc(-c2ccc3c(c2)CCC32CCN(Cc3nccs3)CC2)c1,-2.27
13,CN(C)CCN1CCC2(CCCN(C(=O)C3CCC3)C2)CC1,-1.03
14,COCC(=O)N1CCCC2(CCN(CCN3CCCC3)CC2)C1,-1.48
15,CN(C)CC(=O)N1CCC2(CCc3cc(-c4cccnc4)ccc32)CC1,-0.278
16,c1csc(CN2CCC3(CC2)CCN(CC2CC2)CC3)n1,14.9
17,CN1CCC(NC(=O)[C@H]2CC[C@@H]3[C@@H](CCN3c3ncccn3)O2)CC1,-6.76
18,C[C@@H]1CN(C2CCOCC2)C[C@]12CCN(c1cccnc1)C2=O,-5.4
19,COc1ncccc1CN1CCn2c(C(=O)N3CCCC3)cnc2C1,-5.02
